Data on one molecule can be found in patent publication US9751886B2, “4-amino-6-phenyl-6,7-dihydro[1,2,3]triazolo[1,5-A]pyrazine derivatives as inhibitors of beta-secretase (BACE)” (Janssen Pharmaceutica NV, priority 2013, dated 2017).

Test [1] addresses recombinant BACE2 protein (Homo sapiens (Human), UniProt Q9Y5Z0). Briefly: BACE2 Biochemical FRET based assay. Conditions: 0.4 μg/ml BACE2, 10 μM substrate, 450 min, pH 5.0. From the text: (§1) This assay is a Fluorescence Resonance Energy Transfer Assay (FRET) based assay. The substrate for this assay contains the ‘Swedish’ Lys-Met/Asn-Leu mutation of the amyloid precursor protein (APP) beta-secretase cleavage site. This substrate also contains two fluorophores: (7-methoxycoumarin-4-yl) acetic acid (Mca) is a fluorescent donor with excitation wavelength at 320 nm and emission at 405 nm and 2,4-Dinitrophenyl (Dnp) is a proprietary quencher acceptor. […] Upon cleavage by the beta-secretase, the fluorophore Mca is separated from the quenching group Dnp, restoring the full fluorescence yield of the donor. The increase in fluorescence is linearly related to the rate of proteolysis.
Briefly in a 384-well format recombinant BACE2 protein in a final concentration of 0.4 μg/ml is incubated for 450 minutes at room temperature with 10 μM substrate in incubation buffer (50 mM Citrate buffer pH 5.0, 0.05% PEG, no DMSO) in the absence or presence of compound. Next the amount of proteolysis is directly measured by fluorescence measurement at T=0 and T=450 (excitation at 320 nm and emission at 405 nm). Results are expressed in RFU (Relative Fluorescence Units), as difference between T450 and TO.

Test [2] addresses recombinant BACE1 protein (Homo sapiens (Human), UniProt P56817). Nature of the test: BACE1 Biochemical FRET based assay - Method 2. Conditions: 0.04 μg/ml BACE1, 20 μM substrate, 450 min, pH 5.0.
Description: as §1, with “this assay is an APP derived 13 amino acids peptide that contains the” for “this assay contains the”, “cleavage by BACE1, the fluorophore” for “cleavage by the beta-secretase, the fluorophore”
Briefly in a 384-well format recombinant BACE1 protein in a final concentration of 0.04 μg/ml is incubated for 450 minutes at room temperature with 20 μM substrate in incubation buffer (50 mM Citrate buffer pH 5.0, 0.05% PEG) in the presence of compound or DMSO. Next the amount of proteolysis is directly measured by fluorescence measurement (excitation at 320 nm and emission at 405 nm) at different incubation times (0, 30, 60, 90, 120 and 450 min). For every experiment a time curve (every 30 min between 0 min and 120 min) is used to determine the time where we find the lowest basal signal of the high control. The signal at this time (Tx) is used to subtract from the signal at 450 min. Results are expressed in RFU, as difference between T450 and Tx.

recombinant BACE1 protein, sequence (P56817 46-501): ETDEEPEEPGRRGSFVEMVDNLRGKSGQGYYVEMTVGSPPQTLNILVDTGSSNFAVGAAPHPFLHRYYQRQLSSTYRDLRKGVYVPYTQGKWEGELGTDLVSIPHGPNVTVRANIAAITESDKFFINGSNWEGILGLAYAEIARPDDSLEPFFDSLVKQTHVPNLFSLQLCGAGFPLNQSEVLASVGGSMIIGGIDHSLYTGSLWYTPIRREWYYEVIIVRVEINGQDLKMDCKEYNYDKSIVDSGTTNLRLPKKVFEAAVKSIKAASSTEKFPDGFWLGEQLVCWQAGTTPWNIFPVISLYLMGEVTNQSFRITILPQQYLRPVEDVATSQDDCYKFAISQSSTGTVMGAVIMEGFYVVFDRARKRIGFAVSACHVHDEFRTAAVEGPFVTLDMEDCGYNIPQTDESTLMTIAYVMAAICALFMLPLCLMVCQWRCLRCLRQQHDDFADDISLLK
recombinant BACE2 protein, sequence (Q9Y5Z0 63-518): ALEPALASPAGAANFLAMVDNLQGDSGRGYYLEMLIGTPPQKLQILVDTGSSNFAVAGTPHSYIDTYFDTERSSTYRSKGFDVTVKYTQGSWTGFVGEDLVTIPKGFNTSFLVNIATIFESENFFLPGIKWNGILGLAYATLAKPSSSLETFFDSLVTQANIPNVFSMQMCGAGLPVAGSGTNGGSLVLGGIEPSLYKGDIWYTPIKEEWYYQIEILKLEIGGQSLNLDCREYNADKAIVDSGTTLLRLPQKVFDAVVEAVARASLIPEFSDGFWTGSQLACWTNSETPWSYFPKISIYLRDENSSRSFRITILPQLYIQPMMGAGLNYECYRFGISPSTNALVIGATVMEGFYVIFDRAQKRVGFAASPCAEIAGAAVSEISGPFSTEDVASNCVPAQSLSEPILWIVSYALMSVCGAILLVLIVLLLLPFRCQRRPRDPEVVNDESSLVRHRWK

Turning to `C[C@@]1(c2cc(NC(=O)c3ccc(F)cn3)ccc2F)Cn2nncc2C(N)=N1` [Compound 1, N-{3-[(6R)-4-amino-6-methyl-6,7-dihydro[1,2,3]triazolo[1,5-a]pyrazin-6-yl]-4-fluorophenyl}-5-fluoropyridine-2-carboxamide], the “BACE2 Biochemical FRET based assay pIC50” value in test [1] amounted to 8.48. The “BACE1 Biochemical FRET based assay - Method 2 pIC50” value in test [2] was 8.37.
